The nature of assay [1]: Ultimate tensile strength (UTS) of demineralized dentin after cross-linker treatment (Example 1). Set-up: species or system human. As to conditions: for Ultimate tensile strength, mean: pH 7.4. The text has this: (§1) Fixation Processes: Ten sound freshly extracted human molars were used in this study. The teeth were thawed, cleaned of adhering soft tissues, and the occlusal surfaces were ground flat with #320 grit Silicon Carbide paper under running water to remove part of the enamel. Flattening of the occlusal surface by removal of the cusps enables accurate sectioning of samples in beam shape. Teeth were sectioned into 0.5±0.1 by 0.5±0.1 mm thick beams (n=20 beams per tooth) with a slow speed diamond wafering blade (Buehler-Series 15LC Diamond, Lake Bluff, Ill., USA) under constant water coolant (FIG. 1A).
(§2) The slabs were randomly divided into two groups: 1) undemineralized dentin and 2) demineralized dentin (FIG. 1A). In Group 2, dentin beams were immersed in 10% phosphoric acid solution (Fisher Scientific, New Jersey, N.J.) for a period of 5 hours. X-rays were taken from the specimens to verify complete tissue demineralization. Specimens were thoroughly rinsed with distilled water for 10 minutes to remove any residue of the phosphoric acid.
(§3) Specimens from groups 1 and 2 were subdivided according to the dentin treatment (FIG. 1B). In Treatment A, specimens were immersed in PBS solution (pH: 7.4) as a control. In Treatment B, specimens were immersed in 0.5% Proanthocyanidin (MegaNatural—Polyphenolics Ind.) PBS solution (PA) at a pH of 7.4. In Treatment C, specimens were immersed in 0.625% Genipin (Wako Pure Chemical Ind.) PBS solution (GE) at a pH of 7.4. In Treatment D, specimens were immersed in 5% glutaraldehyde solution (GD) (Fisher Scientific, New Jersey, N.J.) at a pH of 7.4. Specimens were kept in their respective solutions for 4 and 40 hours at room temperature. After the incubation periods, specimens were thoroughly rinsed with distilled and deionized water to remove any remains of cross-linking agents and buffer.
(§4) UTS testing: For UTS evaluation, the specimens were glued with a cyanoacrylate adhesive (Zapit—Dental Ventures of America Inc., Corona, Calif.) to a Ciucchi's jig, which was mounted on a universal testing machine (EZ Test, Shimazu Co., Kyoto, Japan) and subjected to microtensile testing at a crosshead speed of 1 mm/min (FIG. 1C). Means and standard deviations were calculated and expressed in microtensile bond strengths (MPa). Statistical analysis was performed using a two-way ANOVA and Fisher's PLSD tests (p<0.05).

The nature of assay [2]: Ultimate tensile strength (UTS) of undemineralized (mineralized) dentin after cross-linker treatment (Example 1). Set-up: species or system human. To be noted: 0.625% GE or 5% GD; for Ultimate tensile strength, mean: pH 7.4.
Description: as §1, §2, §3, §4

On to `COC(=O)C1=CO[C@@H](O)[C@@H]2C(CO)=CC[C@H]12` [GE, genipin], for which the “Ultimate tensile strength, mean” value in assay [1] (4 hours in 0.5% PA, 0.625% GE or 5% GD) worked out at 11.0 MPa; in assay [1] (40 hours in 0.5% PA, 0.625% GE or 5% GD), 18.2 MPa; in assay [2] (4 hours in 0.5% PA), 84.2 MPa; in assay [2] (40 hours in 0.5% PA), 94.2 MPa. Further, the “increase in the UTS values” in assay [1] (40 hours treatment, versus control) is “approximately 80%”. Also, the “Ultimate tensile strength, pooled data” value in assay [1] (pooled over 4 and 40 hours, 0.5% PA, 0.625% GE or 5% GD) was 14.6 B MPa; in assay [2] (pooled over 4 and 40 hours, 0.5% PA), 89.2 A MPa. In assay [1] (two-way ANOVA, Fisher's PLSD), the “UTS values compared to the control group (statistics)” value is given as “statistically significant increase”.

The values above are taken from patent US20090123581A1, “COLLAGEN CROSS-LINKING AGENTS ON DENTAL RESTORATIVE TREATMENT AND PREVENTIVE DENTISTRY” (THE BOARD OF TRUSTEES OF THE UNIVERSITY OF ILLINOIS, priority 2006, published 2009).
